# Laboratory results taken from PMC2784880 (2009).
# Target: T1, trypanothione synthetase-amidase (TRYS) (Trypanosoma brucei, UniProt Q586P2)
# T1 sequence (Q586P2 1-627): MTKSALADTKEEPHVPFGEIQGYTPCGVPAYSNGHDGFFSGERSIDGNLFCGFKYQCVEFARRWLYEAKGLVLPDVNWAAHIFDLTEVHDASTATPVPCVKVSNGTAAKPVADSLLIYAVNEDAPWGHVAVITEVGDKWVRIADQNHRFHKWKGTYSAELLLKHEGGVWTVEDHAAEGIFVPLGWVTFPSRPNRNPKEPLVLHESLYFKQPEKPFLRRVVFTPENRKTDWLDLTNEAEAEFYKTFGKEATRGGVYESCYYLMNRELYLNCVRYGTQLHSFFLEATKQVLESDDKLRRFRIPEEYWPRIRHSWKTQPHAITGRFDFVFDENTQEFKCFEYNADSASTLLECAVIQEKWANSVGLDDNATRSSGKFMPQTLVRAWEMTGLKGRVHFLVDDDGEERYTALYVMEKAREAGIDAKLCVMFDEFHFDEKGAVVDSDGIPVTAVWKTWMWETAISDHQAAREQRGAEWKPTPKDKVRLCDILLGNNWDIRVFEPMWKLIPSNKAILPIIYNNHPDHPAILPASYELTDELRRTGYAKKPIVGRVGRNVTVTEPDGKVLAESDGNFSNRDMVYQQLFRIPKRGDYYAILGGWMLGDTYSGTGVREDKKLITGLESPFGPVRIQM
# Test: inhibition of recombinant TRYS
# Assay type: biochemical
structure (smiles),measurement,value
"CN(C)CCCNC(=O)Cn1nc(-c2cccc(F)c2)c2ccccc21 [DDU 86439, N-(3-(dimethylamino)propyl)-2-(3-(3-fluorophenyl)-1H-indazol-1-yl)acetamide]",IC50,45 nM
